Key:
BRD4 (BDI_K57-E168) = biological target: T1, BRD4 (BDI_K57-E168) (Homo sapiens, UniProt O60885); assay: TR-FRET bromodomain binding assay, first bromodomain of BRD4; settings: His-tagged BD1, 100 nM Alexa647 probe; TR-FRET protocol A-E given per row
T1 construct: BD1: amino acids K57-E168; made in house
In short: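 Ki values come from IC50s (4-parameter logistic) corrected for probe Kd and concentration, normalised to no-compound and 1 μM unlabelled probe controls. Probe displacement by TR-FRET used 8 nM BD1 (K57-E168), 100 nM Alexa647 probe, 1 nM Eu-anti-His, 20 mM phosphate pH 6.0, 2% DMSO, 1 h, room temperature.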

BRD4 (BDII_E352-M457) = biological target: T2, BRD4 (BDII_E352-M457) (Homo sapiens, UniProt O60885); assay: TR-FRET bromodomain binding assay, second bromodomain of BRD4; settings: His-tagged BD2, 30 nM Alexa647 probe; TR-FRET protocol A-E given per row
T2 construct: proliferation; Protocol; made in house
In short: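 His-tagged BRD4 BD2 ([…]) competed against an Alexa647-labelled BET-inhibitor probe in TR-FRET. Buffer was 20 mM sodium phosphate pH 6.0, 50 mM NaCl, 1 mM EDTA, 0.01% Triton X-100, 1 mM DTT, with method D DMSO series of 2.5 mM–800 nM (stock range). IC50 from 4-parameter fit, Ki from probe Kd and concentration.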

[1] = tested on: breast cancer cell line MX-1; assay: MX-1 cell line proliferation assay; format: cell-based; settings: Homo sapiens, MX1, 72 h, MX-1 cells, 3-day proliferation assay, Cell Titer Glo; read-out: Cellular proliferation EC50
In short: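 Final compound concentrations spanned 0.0001 to 3 μM, added to 5000 cells/well plated the previous night in RPMI 1640 plus 10% FBS at 37 °C.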

SMILES	Ki (BRD4 (BDI_K57-E168)) [nM]	Ki (BRD4 (BDII_E352-M457)) [nM]	EC50 [1] [nM]
Cn1cc(-c2cc(CS(=O)(=O)c3ccccc3)ccc2Oc2ccc(F)cc2F)c2cc[nH]c(=O)c21 [Example 58, 3-{2-(2,4-difluorophenoxy)-5-[(phenylsulfonyl)methyl]phenyl}-1-methyl-1,6-dihydro-7H-pyrrolo[2,3-c]pyridin-7-one]	72	88	57
Cc1cnc(C(=O)Nc2ccc(Oc3ccc(F)cc3F)c(-c3cn(C)c4c(=O)[nH]ccc34)c2)cn1 [Example 151, N-[4-(2,4-difluorophenoxy)-3-(1-methyl-7-oxo-6,7-dihydro-1H-pyrrolo[2,3-c]pyridin-3-yl)phenyl]-5-methylpyrazine-2-carboxamide]	16.1	32	200
CCS(=O)(=O)Nc1ccc(Oc2ccc(Cl)cc2)c(-c2cn(C)c3c(=O)[nH]ccc23)c1 [Example 5, N-[4-(4-chlorophenoxy)-3-(1-methyl-7-oxo-6,7-dihydro-1H-pyrrolo[2,3-c]pyridin-3-yl)phenyl]ethanesulfonamide]	10	29	67
Cn1cc(-c2cc(CS(C)(=O)=O)ccc2Nc2ccccn2)c2cc[nH]c(=O)c21 [Example 203, 1-methyl-3-{5-[(methylsulfonyl)methyl]-2-(pyridin-2-ylamino)phenyl}-1,6-dihydro-7H-pyrrolo[2,3-c]pyridin-7-one]	13.8	43.9	118
Cn1cc(-c2cc(S(C)(=O)=O)ccc2OCC2CC2)c2cc[nH]c(=O)c21 [Example 20, 3-[2-(cyclopropylmethoxy)-5-(methylsulfonyl)phenyl]-1-methyl-1,6-dihydro-7H-pyrrolo[2,3-c]pyridin-7-one]	18	165	181
Cn1cc(-c2cc(S(C)(=O)=O)ccc2OC2CCCOC2)c2cc[nH]c(=O)c21 (stereo not drawn) [Example 26, 1-methyl-3-[5-(methylsulfonyl)-2-(tetrahydro-2H-pyran-3-yloxy)phenyl]-1,6-dihydro-7H-pyrrolo[2,3-c]pyridin-7-one]	7	60	123
Cn1cc(-c2cc(CS(C)(=O)=O)ccc2NCC2CC2)c2cc[nH]c(=O)c21 [Example 110, 3-{2-[(cyclopropylmethyl)amino]-5-[(methylsulfonyl)methyl]phenyl}-1-methyl-1,6-dihydro-7H-pyrrolo[2,3-c]pyridin-7-one]	61	215	136
Cn1cc(-c2cc(S(C)(=O)=O)ccc2OCC(C)(C)C)c2cc[nH]c(=O)c21 [Example 27, 3-[2-(2,2-dimethylpropoxy)-5-(methylsulfonyl)phenyl]-1-methyl-1,6-dihydro-7H-pyrrolo[2,3-c]pyridin-7-one]	8	32	176
CC(C)S(=O)(=O)Nc1ccc(Oc2ccc(F)cc2F)c(-c2cn(C)c3c(=O)[nH]ccc23)c1 [Example 3, N-[4-(2,4-difluorophenoxy)-3-(1-methyl-7-oxo-6,7-dihydro-1H-pyrrolo[2,3-c]pyridin-3-yl)phenyl]propane-2-sulfonamide]	26	43	161
Cn1cc(-c2cc(S(C)(=O)=O)ccc2Oc2ccc(F)cc2F)c2c(Cl)c[nH]c(=O)c21 [Example 108, 4-chloro-3-[2-(2,4-difluorophenoxy)-5-(methylsulfonyl)phenyl]-1-methyl-1,6-dihydro-7H-pyrrolo[2,3-c]pyridin-7-one]	93	181	460
CCc1cc2c(-c3cc(CS(C)(=O)=O)ccc3Oc3ccc(F)cc3F)cn(C)c2c(=O)[nH]1 [Example 92, 3-{2-(2,4-difluorophenoxy)-5-[(methylsulfonyl)methyl]phenyl}-5-ethyl-1-methyl-1,6-dihydro-7H-pyrrolo[2,3-c]pyridin-7-one]	1.7	1.8	8
